Experimental data as given in patent US6867211B2, “4-Pyridyl-and 2,4-pyrimidinyl-substituted pyrrole derivatives and their use in pharmacy” (Merckle GmbH, priority 2000, dated 2005).

What was measured:
IL-1β [1] = assay: In vitro test procedure using PBMCs, LPS-stimulated, IL-1β by ELISA; type: cell-based; conditions: Homo sapiens, PBMC; for inhibition at 10 µM: at 10 μmol
Method: (§1) In vitro Test Procedure Using PBMCs
(§2) The mononuclear cells (PBMCs) are isolated from human potassium-EDTA whole blood diluted 1:3 by means of density gradient centrifugation (Histopaque®-1.077). After 2 washing steps with DPBS buffer, the mononuclear cells are resuspended in macrophage-SFM medium and adjusted to a cell count of 1×10^6 cells/ml.
(§3) The PBMCs suspension (at 390 μl) is preincubated with test substance for 15 min at 37° C. in a CO2 incubator (5% CO2; 95% moisture-saturated air). The samples are subsequently stimulated for 4 hours with 1 μg/ml LPS (E.coli 026:B6) at 37° C. in a CO2 incubator (5% CO2, 95% moisture-saturated air). The reaction is ended by placing the samples on ice, addition of DPBS buffer and centrifugation (15880×g; 12 min). The supernatant is used for the quantification of IL-1β and TNFα by means of ELISA.

TNFα [2] = assay: In vitro test procedure using human whole blood, LPS-stimulated, TNFα by ELISA; type: cell-based; conditions: whole-blood method; for IC50: Homo sapiens
Method: (§4) In vitro Test Procedure Using Human Whole Blood
(§5) Human potassium-EDTA whole blood (at 400 μl) is preincubated with test substance for 15 min. at 37° C. in a CO2 incubator (5% CO2; 95% moisture-saturated air). The samples are then stimulated for 4 hours with 1 μg/ml of LPS (E. coli 026:B6) at 37° C. in a CO2 incubator (5% CO2; 95% moisture-saturated air). The reaction is ended by placing the samples on ice, addition of DPBS buffer and subsequent centrifugation (1000×g; 15 min). The plasma supernatant is used for the quantification of IL-1β and TNFα by means of ELISA.

TNFα [3] = assay: In vitro test procedure using PBMCs, LPS-stimulated, TNFα by ELISA; type: cell-based; conditions: Homo sapiens, PBMC; for inhibition at 10 µM / inhibition at 1 µM: 4 h, read-out: TNFα percentage inhibition; for inhibition at 10 µM: at 10 μmol; for inhibition at 1 µM: at 1 μmol
Method: as §1, §2, §3

IL-1β [4] = assay: In vitro test procedure using human whole blood, LPS-stimulated, IL-1β by ELISA; type: cell-based; conditions: whole-blood method; for IC50: Homo sapiens
Method: as §4, §5

5-lipoxygenase = molecular target: T1, 5-lipoxygenase (Homo sapiens, UniProt P09917); assay: In vitro test system for determining the inhibition of 5-lipoxygenase (LTB4 from human granulocytes, A 23187, ELISA); type: cell-based; conditions: for IC50: human granulocytes, read-out: 5-LO IC50
T1 construct: Human granulocytes are used as a source of the 5-lipoxygenase; endogenous in cells; host or cells: human granulocytes isolated from heparinised blood on a Percoll gradient
T1 sequence (P09917 1-674): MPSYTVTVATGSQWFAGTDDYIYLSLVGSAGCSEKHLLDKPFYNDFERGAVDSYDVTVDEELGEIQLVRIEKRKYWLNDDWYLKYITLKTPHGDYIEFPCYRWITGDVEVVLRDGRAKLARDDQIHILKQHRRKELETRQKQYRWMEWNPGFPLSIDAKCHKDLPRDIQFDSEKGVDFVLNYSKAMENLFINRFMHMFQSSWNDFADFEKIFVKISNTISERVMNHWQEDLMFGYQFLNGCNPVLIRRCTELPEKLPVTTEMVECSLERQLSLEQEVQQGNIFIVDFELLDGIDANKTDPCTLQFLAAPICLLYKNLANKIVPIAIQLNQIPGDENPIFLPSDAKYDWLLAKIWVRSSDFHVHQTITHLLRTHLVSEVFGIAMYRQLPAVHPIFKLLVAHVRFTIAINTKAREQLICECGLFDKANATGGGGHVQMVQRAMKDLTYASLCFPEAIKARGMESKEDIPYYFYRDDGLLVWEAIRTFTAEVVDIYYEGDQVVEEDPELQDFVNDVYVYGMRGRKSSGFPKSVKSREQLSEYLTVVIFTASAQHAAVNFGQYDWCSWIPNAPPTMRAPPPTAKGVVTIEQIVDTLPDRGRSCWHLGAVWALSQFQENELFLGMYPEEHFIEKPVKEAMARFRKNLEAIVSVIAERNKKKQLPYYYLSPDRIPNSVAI
Method: In vitro Test System for Determining the Inhibition of 5-lipoxygenase
Human granulocytes are used as a source of the 5-lipoxygenase. LTB4 (leukotriene B4) is formed from endogenous arachidonic acid by means of stimulation with calcium ionophore A 23187. The granulocytes are isolated and the enzyme reaction is carried out according to known processes (see Arch. Pharm. Pharm. Med. Chem. 330, 307-312 (1997)).
The blood, which is protected from clotting with heparin, is centrifuged on a discontinuous Percoll® gradient and the granulocyte layer is pipetted off. After lysis of the erythrocytes, the granulocytes are washed a number of times and then adjusted to a specific cell count. The enzyme reaction is then started with calcium ionophore A 23187 in the presence or absence of the test substance after addition of Ca2+. The synthesis of the leukotrienes is stopped after 1.5 minutes. The samples are centrifuged off and the supernatant is diluted. LTB4 is determined quantitatively by means of ELISA.

[5] = molecular target: T2, COX2 (from sheep placenta) (Ovis aries, UniProt P79208); assay: In vitro test system for determining the inhibition of cyclooxygenase-2 (COX2 from sheep placenta, PGE2 ELISA); type: biochemical; conditions: read-out: COX-2 IC50
T2 construct: COX2 (from sheep placenta) is preincubated at 4° C. with test substance for 10 min; from tissue; host or cells: sheep placenta
T2 sequence (P79208 17-603): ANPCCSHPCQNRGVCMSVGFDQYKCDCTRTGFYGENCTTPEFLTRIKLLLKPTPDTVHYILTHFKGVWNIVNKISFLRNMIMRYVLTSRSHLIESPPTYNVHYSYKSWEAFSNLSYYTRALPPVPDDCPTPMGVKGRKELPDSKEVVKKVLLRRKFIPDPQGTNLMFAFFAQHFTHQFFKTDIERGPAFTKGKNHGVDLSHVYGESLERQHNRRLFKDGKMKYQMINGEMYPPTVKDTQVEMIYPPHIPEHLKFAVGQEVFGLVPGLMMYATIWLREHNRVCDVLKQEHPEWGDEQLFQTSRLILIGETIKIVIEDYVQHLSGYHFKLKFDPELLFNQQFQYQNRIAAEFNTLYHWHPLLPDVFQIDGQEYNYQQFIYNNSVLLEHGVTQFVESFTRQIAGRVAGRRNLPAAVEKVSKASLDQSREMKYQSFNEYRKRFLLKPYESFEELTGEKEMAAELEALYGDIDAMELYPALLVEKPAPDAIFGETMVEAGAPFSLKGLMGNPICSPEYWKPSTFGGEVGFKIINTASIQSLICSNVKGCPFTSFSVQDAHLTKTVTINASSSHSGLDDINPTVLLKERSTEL
Method: In vitro Test System for Determining the Inhibition of Cyclooxygenase-2
COX2 (from sheep placenta) is preincubated at 4° C. with test substance for 10 min, then stimulated with arachidonic acid (5 μM) at 25° C. for 10 min. […] The determination is carried out at 3 dilutions (10^−7, 10^−6, 10^−5 M). The PGE2 concentrations are quantified by means of ELISA (see Mitchell J. A. et al., Proc. Nat. Acad. Sci. 90: 11693-11697 (1993)).

cyclooxygenase-1 = molecular target: T3, cyclooxygenase-1 (Homo sapiens, UniProt P23219); assay: In vitro test system for determining the inhibition of cyclooxygenase-1 (PGE2 from human platelets, calcium ionophore, ELISA); type: cell-based; conditions: for COX-1 percentage inhibition: at 10 μmol
T3 construct: endogenous in cells; host or cells: human platelets isolated on a discontinuous Percoll gradient
T3 sequence (P23219 24-599): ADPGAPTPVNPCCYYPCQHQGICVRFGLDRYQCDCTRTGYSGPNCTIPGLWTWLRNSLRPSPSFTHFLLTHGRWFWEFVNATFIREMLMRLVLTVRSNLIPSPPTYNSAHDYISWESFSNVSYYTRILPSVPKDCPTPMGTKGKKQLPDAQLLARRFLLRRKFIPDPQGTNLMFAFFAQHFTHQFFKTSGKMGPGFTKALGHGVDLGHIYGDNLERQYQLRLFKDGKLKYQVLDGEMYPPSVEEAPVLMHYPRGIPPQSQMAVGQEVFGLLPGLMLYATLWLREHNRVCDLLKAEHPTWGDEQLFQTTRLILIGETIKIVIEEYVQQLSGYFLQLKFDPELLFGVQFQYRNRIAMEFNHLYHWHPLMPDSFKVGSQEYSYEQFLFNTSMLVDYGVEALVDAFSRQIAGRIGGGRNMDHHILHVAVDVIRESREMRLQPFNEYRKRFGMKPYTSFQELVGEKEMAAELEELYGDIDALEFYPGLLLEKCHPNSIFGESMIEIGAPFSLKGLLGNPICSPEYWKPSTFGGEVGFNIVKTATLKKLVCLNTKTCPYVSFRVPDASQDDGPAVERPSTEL
Method: In vitro Test System for Determining the Inhibition of Cyclooxygenase-1
In this test system, the amount of prostaglandin E2 formed from human platelets after addition of calcium ionophore is determined by means of ELISA. In this process, the platelets are obtained after centrifugation on a discontinuous Percoll® gradient. The enzyme reaction and the determination of the metabolites formed is carried out in principle as in the determination of 5-lipoxygenase inhibition. Differences exist with respect to the incubation time. Furthermore, the addition of a thromboxane synthesis inhibitor is necessary (see Arch. Pharm. Pharm. Med. Chem. 330, 307-312 (1997)).

[6] = 4 h, read-out: IL-1β percentage inhibition

CCOC(=O)c1c(-c2ccncc2)c(-c2ccc(F)cc2)n2c1CCC2 [Example 1A, Ethyl 3-(4-fluorophenyl)-2-(4-pyridyl)-6,7-dihydro-5H-pyrrolizine-1-carboxylate]
inhibition at 10 µM (IL-1β [1]; [6]): 21%
IC50 (TNFα [2]): 30 µM
inhibition at 10 µM (TNFα [3]): 13%
IC50 (IL-1β [4]): 30 µM

CCOC(=O)c1c(-c2ccncc2)c2n(c1-c1ccc(F)cc1)CCC2 [Example 1B, Ethyl 3-(4-fluorophenyl)-1-(4-pyridyl)-6,7-dihydro-5H-pyrrolizine-2-carboxylate]
IC50 (IL-1β [1]): 1.4 µM
IC50 (5-lipoxygenase): 2 µM
inhibition at 1 µM (TNFα [3]): 12%
inhibition at 10 µM (TNFα [3]): 60%
IC50 (TNFα [3]): 1.4 µM

O=C(O)c1c(-c2ccncc2)c(-c2ccc(F)cc2)n2c1CCC2 [Example 2, 3-(4-Fluorophenyl)-2-(4-pyridyl)-6,7-dihydro-5H-pyrrolizine-1-carboxylic acid]
inhibition at 10 µM (IL-1β [1]; [6]): 17%
IC50 (TNFα [2]): 16 µM
inhibition at 10 µM (TNFα [3]): 37%
IC50 (IL-1β [4]): 2.9 µM

Fc1ccc(-c2c(-c3ccncc3)cc3n2CCC3)cc1 [Example 5, 5-(4-Fluorophenyl)-6-(4-pyridyl)-2,3-dihydro-1H-pyrrolizine]
IC50 (5-lipoxygenase): 0.027 µM
inhibition at 1 µM (TNFα [3]): 44%
inhibition at 10 µM (TNFα [3]): 88%
IC50 (TNFα [3]): 1.4 µM
IC50 [5]: 5.8 µM

O=C(O)c1c(-c2ccncc2)c(-c2cccs2)n2c1CCC2 [Example 7, 3-(2-Thienyl)-2-(4-pyridyl)-6,7-dihydro-5H-pyrrolizine-1-carboxylic acid]
COX-1 percentage inhibition (cyclooxygenase-1): 10/40%
IC50 (TNFα [2]): 48 µM
IC50 (IL-1β [4]): 52 µM

CCOC(=O)c1c(-c2ccncc2)c(-c2ccc(Cl)s2)n2c1CCC2 [Example 9A, Ethyl 3-(5-chloro-2-thienyl)-2-(4-pyridyl)-6,7-dihydro-5H-pyrrolizine-1-carboxylate]
COX-1 percentage inhibition (cyclooxygenase-1): 10/11%
inhibition at 10 µM (IL-1β [1]; [6]): 47%
IC50 (5-lipoxygenase): 1.3 µM
IC50 (TNFα [2]): 38 µM
inhibition at 10 µM (TNFα [3]): 38%
IC50 (IL-1β [4]): 22 µM

O=C(O)c1c(-c2ccncc2)c(-c2ccc(F)cc2)n2c1SCC2 [Example 11, 5-(4-Fluorophenyl)-6-(4-pyridyl)-2,3-dihydro-pyrrole-[2,1-b]-thiazole-7-carboxylic acid]
COX-1 percentage inhibition (cyclooxygenase-1): 10/33%
IC50 (IL-1β [1]): 2.3 µM
5-LO percentage inhibition (5-lipoxygenase; at 10 μmol): 10/30%
TNFα percentage inhibition (TNFα [2]; at 100 μmol): 45%
IC50 (TNFα [3]): 6.8 µM
IL-1β percentage inhibition (IL-1β [4]; at 100 μmol): 45%

OCc1c(-c2ccncc2)c(-c2ccc(F)cc2)n2c1SCC2 [Example 12, [5-(4-Fluorophenyl)-6-(4-pyridyl)-2,3-dihydro-pyrrolo-[2,1-b]-thiazol-7-yl]methanol]
IC50 (IL-1β [1]): 7.6 µM
IC50 (TNFα [2]): 45 µM
inhibition at 10 µM (TNFα [3]): 44%
IC50 (IL-1β [4]): 76 µM

Cc1c(-c2ccncc2)c(-c2ccc(F)cc2)n2c1SCC2 [Example 13, 5-(4-Fluorophenyl)-7-methyl-6-pyridin-4-yl-2,3-dihydropyrrolo-[2,1-b]-thiazole]
COX-1 percentage inhibition (cyclooxygenase-1): 10/45%
inhibition at 10 µM (IL-1β [1]; [6]): 43%
IC50 (5-lipoxygenase): 0.04 µM
IC50 (TNFα [2]): 41 µM
IC50 (TNFα [3]): 8.1 µM
IC50 (IL-1β [4]): 80 µM

Fc1ccc(-c2c(-c3ccncc3)cc3n2CCS3)cc1 [Example 14, 5-(4-Fluorophenyl)-6-pyridin-4-yl-2,3-dihydro-pyrrolo-[2,1-b]-thiazole]
IC50 (cyclooxygenase-1; human platelets, read-out: COX-1 IC50): 2.3 µM
IC50 (IL-1β [1]): 8.5 µM
IC50 (5-lipoxygenase): 2.4 µM
IC50 (TNFα [3]): 7.6 µM

Cc1c(-c2ccncc2)c(-c2ccc(F)cc2)n2c1CCCC2 [Example 17, 3-(4-Fluorophenyl)-1-methyl-2-(4-pyridyl)-5,6,7,8-tetrahydroindolizine]
COX-1 percentage inhibition (cyclooxygenase-1): 10/48%
inhibition at 1 µM (IL-1β [1]; 4 h, at 1 μmol, read-out: IL-1β percentage inhibition): 0%
inhibition at 10 µM (IL-1β [1]; [6]): 67%
IC50 (5-lipoxygenase): 2.2 µM
IC50 (TNFα [2]): 39 µM
IC50 (TNFα [3]): 4 µM
IC50 (IL-1β [4]): 33 µM

CC1(C)COc2c(-c3ccncc3)c(-c3ccc(F)cc3)cn2C1 [Example 24, 7-(4-Fluorophenyl)-3,3-dimethyl-8-pyridin-4-yl-3,4-dihydro-2H-pyrrolo[2,1-b][1,3]-oxazine]
inhibition at 10 µM (IL-1β [1]; [6]): 48%
IC50 (5-lipoxygenase): 1.35 µM
inhibition at 10 µM (TNFα [3]): 42%
IC50 [5]: 4 µM

Fc1ccc(-c2c(-c3ccccc3)c3n(c2-c2ccncc2)CCC3)cc1 [Example 25]
IC50 (TNFα [3]): 87 µM
